Assay results taken from US20260068882A1, “ARTHROPOD CONTROLLING COMPOSITION” (Firmenich SA, priority 2019, published 2026).
Like-named read-outs stand apart in the source and are kept apart here.

Tests used:
Aedes aegypti = test: In vitro Warm Body assay, mosquitoes landing on treated warm body; type: in vivo
Procedure, shortened: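 Adapted Warm Body assay with host-seeking, non-blood-fed, sugar-fed A. aegypti Rockefeller females aged 5–10 days (10–12 days in one set); cages held 30 (or 25) females at 150 lux. Landings were counted automatically. Doses in ethanol were 0.0016%, 0.04% and 1% in triplicate, or a single replicate across 0.0016–1%.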

Ixodes ricinus = test: In vitro Warm Plate Assay for ticks; type: in vivo; conditions: for pest or weed control at 0.0016 % / pest or weed control at 0.0053 % / pest or weed control at 0.008 % / pest or weed control at 0.0119 % / pest or weed control at 0.0178 % / pest or weed control at 0.0267 % / pest or weed control at 0.04 % / pest or weed control at 0.0598 % / pest or weed control at 0.089 % / pest or weed control at 0.2 % / pest or weed control at 0.447 % / pest or weed control at 1 %: Ixodes ricinus, read-out: percentage of ticks affected on the Warm Plate
Procedure, shortened: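 Repellency against last-stage Ixodes ricinus nymphs in an in vitro warm plate assay, compounds diluted in ethanol at 0.4 and 10 mg/mL, 0.0016% to 1%, or 20% (w/w). Ticks walking down or falling from the treated plate scored as affected, walking up as unaffected; groups of 12 ticks, n=2-5.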

[1] = 0.0016% in ethanol (Table 7, one replicate)
[2] = 0.008% in ethanol (Table 7, one replicate)
[3] = 0.04% in ethanol (Table 7, one replicate)
[4] = 0.2% in ethanol (Table 7, one replicate)
[5] = 1% in ethanol (Table 7, one replicate)

c1ccc2c(c1)CC1COCOC21 (stereo not shown) [ingredient #3, 4,4A,5,9B-tetrahydro-indeno[1,2-D]-1,3-dioxin]
reduction of landing (Aedes aegypti; 0.0016% (Table 7)): 5% | number of mosquitoes landed on the Warm Body (Aedes aegypti; 0.0016% in ethanol (Table 6)): 76 | number of mosquitoes landed on the Warm Body (Aedes aegypti; [1]): 76 | number of mosquitoes landed on the Warm Body (Aedes aegypti; [2]): 61 | number of mosquitoes landed on the Warm Body (Aedes aegypti; 0.0119% in ethanol (Table 7, one replicate)): 42 | number of mosquitoes landed on the Warm Body (Aedes aegypti; 0.04% in ethanol (Table 6)): 6 | number of mosquitoes landed on the Warm Body (Aedes aegypti; [3]): 6 | number of mosquitoes landed on the Warm Body (Aedes aegypti; 0.0598% in ethanol (Table 7, one replicate)): 4 | number of mosquitoes landed on the Warm Body (Aedes aegypti; [4]): 0 | number of mosquitoes landed on the Warm Body (Aedes aegypti; 0.447% in ethanol (Table 7, one replicate)): 2 | number of mosquitoes landed on the Warm Body (Aedes aegypti; 1% in ethanol (Table 6)): 2 | number of mosquitoes landed on the Warm Body (Aedes aegypti; [5]): 2 | percentage of ticks being affected (Ixodes ricinus; 0.00032% (Table 9)): 0% | percentage of ticks being affected (Ixodes ricinus; 0.00071% (Table 9)): 8% | percentage of ticks being affected (Ixodes ricinus; 0.0016% (Table 9)): 0% | percentage of ticks being affected (Ixodes ricinus; 0.00357% (Table 9)): 0% | percentage of ticks being affected (Ixodes ricinus; 0.0053% (Table 9)): 0% | percentage of ticks being affected (Ixodes ricinus; 0.008% (Table 9)): 0% | percentage of ticks being affected (Ixodes ricinus; 0.0119% (Table 9)): 0% | percentage of ticks being affected (Ixodes ricinus; 0.0178% (Table 9)): 0% | percentage of ticks being affected (Ixodes ricinus; 0.0267% (Table 9)): 0% | percentage of ticks being affected (Ixodes ricinus; 0.04% (Table 9)): 13% | percentage of ticks being affected (Ixodes ricinus; 0.0598% (Table 9)): 6% | percentage of ticks being affected (Ixodes ricinus; 0.089% (Table 9)): 0% | percentage of ticks being affected (Ixodes ricinus; 0.2% (Table 9)): 24% | percentage of ticks being affected (Ixodes ricinus; 0.447% (Table 9)): 67% | percentage of ticks being affected (Ixodes ricinus; 1% (Table 9)): 92% | percentage of ticks affected overtime (Ixodes ricinus; 20% (w/w) in ethanol, 0.25 h post-application): 100% | percentage of ticks affected overtime (Ixodes ricinus; 20% (w/w) in ethanol, 0.5 h post-application): 92% | percentage of ticks affected overtime (Ixodes ricinus; 20% (w/w) in ethanol, 1 h post-application): 8% | percentage of ticks affected overtime (Ixodes ricinus; 20% (w/w) in ethanol, 2 h post-application): 17% | percentage of ticks affected overtime (Ixodes ricinus; 20% (w/w) in ethanol, 4 h post-application): 15% | percentage of ticks affected overtime (Ixodes ricinus; 20% (w/w) in ethanol, 6 h post-application): 33% | ticks' repellency overtime (in words) (Ixodes ricinus; 20% (w/w) in ethanol, Table 14): very effective at the first time points | pest or weed control at 0.0016 % (Ixodes ricinus; 0.0016% in ethanol (Table 12)): 0% | pest or weed control at 0.0053 % (Ixodes ricinus; 0.0053% in ethanol (Table 12)): 0% | pest or weed control at 0.008 % (Ixodes ricinus; 0.008% in ethanol (Table 12)): 0% | pest or weed control at 0.0119 % (Ixodes ricinus; 0.0119% in ethanol (Table 12)): 0% | pest or weed control at 0.0178 % (Ixodes ricinus; 0.0178% in ethanol (Table 12)): 0% | pest or weed control at 0.0267 % (Ixodes ricinus; 0.0267% in ethanol (Table 12)): 0% | pest or weed control at 0.04 % (Ixodes ricinus; 0.04% in ethanol (Table 12)): 13% | pest or weed control at 0.0598 % (Ixodes ricinus; 0.0598% in ethanol (Table 12)): 6% | pest or weed control at 0.089 % (Ixodes ricinus; 0.089% in ethanol (Table 12)): 0% | pest or weed control at 0.2 % (Ixodes ricinus; 0.2% in ethanol (Table 12)): 24% | pest or weed control at 0.447 % (Ixodes ricinus; 0.447% in ethanol (Table 12)): 67% | pest or weed control at 1 % (Ixodes ricinus; 1% in ethanol (Table 12)): 92% | ticks affected (Ixodes ricinus; dose of 0.598%): 6%

CCCCC[C@@H]1C(=O)CC[C@@H]1CC(=O)OC [ingredient #4, (+)-methyl (1R)-cis-3-oxo-2-pentyl-1-cyclopentaneacetate, reference compound]
number of mosquitoes landed on the Warm Body (Aedes aegypti; [1]): 66 | number of mosquitoes landed on the Warm Body (Aedes aegypti; [2]): 53 | number of mosquitoes landed on the Warm Body (Aedes aegypti; [3]): 16 | number of mosquitoes landed on the Warm Body (Aedes aegypti; [4]): 17 | number of mosquitoes landed on the Warm Body (Aedes aegypti; [5]): 4 | pest or weed control at 0.0016 % (Ixodes ricinus): 15% | pest or weed control at 0.0053 % (Ixodes ricinus): 17% | pest or weed control at 0.008 % (Ixodes ricinus): 8% | pest or weed control at 0.0119 % (Ixodes ricinus): 0% | pest or weed control at 0.0178 % (Ixodes ricinus): 33% | pest or weed control at 0.0267 % (Ixodes ricinus): 36% | pest or weed control at 0.04 % (Ixodes ricinus): 92% | pest or weed control at 0.0598 % (Ixodes ricinus): 100% | pest or weed control at 0.089 % (Ixodes ricinus): 100% | pest or weed control at 0.2 % (Ixodes ricinus): 100% | pest or weed control at 0.447 % (Ixodes ricinus): 92% | pest or weed control at 1 % (Ixodes ricinus): 100%
